Structures can show the parent of a compound that is named as a salt. Where two headings read alike, the source gives them in different places.
Experiments:
[1] = target: T1, GRK2 (Homo sapiens, UniProt P25098); assay: GRK2 Inhibition Assay (TR-FRET, Example 1); format: biochemical
T1 sequence (P25098 1-689): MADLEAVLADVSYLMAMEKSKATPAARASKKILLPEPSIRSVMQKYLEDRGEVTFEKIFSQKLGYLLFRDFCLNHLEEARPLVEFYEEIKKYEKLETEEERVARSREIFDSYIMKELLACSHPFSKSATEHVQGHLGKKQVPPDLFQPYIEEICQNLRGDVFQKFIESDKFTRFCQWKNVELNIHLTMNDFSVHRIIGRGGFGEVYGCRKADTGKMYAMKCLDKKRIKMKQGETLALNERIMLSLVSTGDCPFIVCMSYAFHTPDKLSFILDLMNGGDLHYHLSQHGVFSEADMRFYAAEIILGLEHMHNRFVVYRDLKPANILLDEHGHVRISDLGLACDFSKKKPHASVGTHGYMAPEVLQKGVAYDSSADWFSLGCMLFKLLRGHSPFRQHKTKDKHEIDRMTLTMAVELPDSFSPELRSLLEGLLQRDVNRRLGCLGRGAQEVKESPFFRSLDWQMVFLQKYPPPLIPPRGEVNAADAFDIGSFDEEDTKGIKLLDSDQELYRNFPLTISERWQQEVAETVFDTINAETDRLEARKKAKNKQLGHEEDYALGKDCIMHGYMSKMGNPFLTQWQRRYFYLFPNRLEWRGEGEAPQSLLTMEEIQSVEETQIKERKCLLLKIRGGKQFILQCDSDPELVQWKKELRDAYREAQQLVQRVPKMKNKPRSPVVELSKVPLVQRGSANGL
Description: Assay: GRK2 enzyme (1 nM final concentration) was diluted in 25 mM HEPES, 10 mM MgCl2, 2 mM DTT, 0.01% Tween-20, and 1 mM EGTA. Then the GRK2 mixture was added into ProxiPlate-384 white plate and pre-incubated for 30 min with test compounds at room temperature. ATP (7 μM final concentration) and Ulight TopoIIα (50 nM final concentration) were added into the assay plate to initiate the reaction and the mixture was incubated at room temperature for 90 min. Then, Eu anti-TopoIIα (0.12 nM final concentration), BSA (0.01% final concentration), and EDTA (11 mM final concentration) in LANCE assay buffer were added into each well. After 60 min incubation time at room temperature, TR-FRET signal was measured by EnVision plate reader.

[2] = system: PAXF1657 KO Clone #4; assay: 7-day cellular proliferation assay (CellTiter-Glo), PAXF1657 KO Clone #4; format: cell-based; conditions: proliferation, read-out: GeoMean IC50 (uM) PAXF1657 KO Clone #4
Procedure, shortened: (§1)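 Seven-day growth in PAXF1657 lines engineered for GRK2 overexpression or knockout, measured by CellTiter-Glo; compounds tested at 30 μM-0.0002 μM final and replenished once at day 3.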

[3] = target: T1, GRK2; assay: GRK2 Degradation Assay and Western Blot in PAXF1657 cells; format: cell-based; design: endogenous in cells; host or cells: PAXF1657; conditions: for inhibition at 0.3 µM: Conc 0.3 uM; for inhibition at 0.3 µM / inhibition at 1 µM / inhibition at 3 µM: read-out: Degradation Assay - 3 point: Degradation (%); for inhibition at 1 µM: Conc 1 uM; for inhibition at 3 µM: Conc 3 uM; for DC50: PAXF1657, 24 h, read-out: Degradation Assay - Full Dose Response: IC50 (uM) [cell line: PAXF1657, time point: 24 h]
Procedure, shortened: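 PAXF1657 cells grown to 70% confluency, then treated with compounds at 0–10 μM for 6 to 24 h at 37 °C. Lysates in PBS with 1% NP40 run on SDS-PAGE. GRK2 protein detected by western blot with β-actin as loading reference, using ECL chemiluminescence.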

[4] = system: PAXF1657 EV; assay: 7-day cellular proliferation assay (CellTiter-Glo), PAXF1657 EV; format: cell-based; conditions: proliferation, read-out: GeoMean IC50 (UM) PAXF1657 EV
Procedure, shortened: as §1

[5] = Table 4, Example 1 assay, read-out: Enzymatic GRK2 IC50: Av IC50 GRK2
[6] = TR-FRET, 7 μM ATP, read-out: Enzymatic GRK2 Assay: IC50 (nM) (Example 1)

| Compound | IC50 [1, 5] | IC50 [2] | inhibition at 0.3 µM [3] | inhibition at 1 µM [3] | inhibition at 3 µM [3] | IC50 [4] | DC50 [3] | IC50 [1, 6] |
| --- | --- | --- | --- | --- | --- | --- | --- | --- |
| C[C@H](NC(=O)c1cccc(NCc2nnc(-c3ccncn3)n2C)c1)c1ccc(OCCCCCCOCCOCCOCCCCCC(=O)Nc2cccc3c2CN(C2CCC(=O)NC2=O)C3=O)cc1 (stereo partly drawn) [Compound D152, N-((1S)-1-(4-(6-(2-(2-(6-(2-(2,6-dioxopiperidin-3-yl)-1-oxoisoindolin-4-ylamino)-6-oxohexyloxy)ethoxy)ethoxy)hexyloxy)phenyl)ethyl)-3-((4-methyl-5-(pyrimidin-4-yl)-4H-1,2,4-triazol-3-yl)methylamino)benzamide] | > 1000 nM | > 30 µM | 24% | 28% | 38% | 12700 nM | – | – |
| C[C@H](NC(=O)c1cccc(NCc2nnc(-c3ccncn3)n2C)c1)c1cccc(OCCCCCOCCCOCC(=O)Nc2cccc3c2CN(C2CCC(=O)NC2=O)C3=O)c1 (stereo partly drawn) [Compound D185, N-((1S)-1-(3-((5-(3-(2-((2-(2,6-dioxopiperidin-3-yl)-1-oxoisoindolin-4-yl)amino)-2-oxoethoxy)propoxy)pentyl)oxy)phenyl)ethyl)-3-(((4-methyl-5-(pyrimidin-4-yl)-4H-1,2,4-triazol-3-yl)methyl)amino)benzamide] | 211 nM | > 30 µM | 1.79% | 17.5% | 19.2% | > 30000 nM | – | – |
| C[C@@H](NC(=O)c1cccc(NCc2nnc(-c3ccncn3)n2C)c1)c1cccc(OCCCCCCOCCOCC(=O)N2CCN(c3ccc4c(c3)CN(C3CCC(=O)NC3=O)C4=O)CC2)c1 (stereo partly drawn) [Compound D138, N-((1R)-1-(3-(6-(2-(2-(4-(2-(2,6-dioxopiperidin-3-yl)-1-oxoisoindolin-5-yl)piperazin-1-yl)-2-oxoethoxy)ethoxy)hexyloxy)phenyl)ethyl)-3-((4-methyl-5-(pyrimidin-4-yl)-4H-1,2,4-triazol-3-yl)methylamino)benzamide hydrochloride] | 20.2 nM | > 30 µM | 85% | 92% | 95% | 660 nM | 0.137 µM | – |
| C[C@@H](NC(=O)c1cccc(NCc2nnc(-c3ccncn3)n2C)c1)c1cccc(OCCCCCOCCCOCCNc2cccc3c2CN(C2CCC(=O)NC2=O)C3=O)c1 (stereo partly drawn) [Compound D196, N-((1R)-1-(3-(5-(3-(2-(2-(2,6-dioxopiperidin-3-yl)-1-oxoisoindolin-4-ylamino)ethoxy)propoxy)pentyloxy)phenyl)ethyl)-3-((4-methyl-5-(pyrimidin-4-yl)-4H-1,2,4-triazol-3-yl)methylamino)benzamide] | 23.8 nM | > 30 µM | 66.2% | 71.1% | 38.9% | 360 nM | – | – |
| C[C@@H](NC(=O)c1cccc(NCc2nnc(-c3ccncn3)n2C)c1)c1cccc(OCCCCCCOCCOCCOCCC(=O)N2CCN(c3cc4c(cc3F)C(=O)N(C3CCC(=O)NC3=O)C4=O)CC2)c1 (stereo partly drawn) [Compound D130, N-((1R)-1-(3-(6-(2-(2-(3-(4-(2-(2,6-dioxopiperidin-3-yl)-6-fluoro-1,3-dioxoisoindolin-5-yl)piperazin-1-yl)-3-oxopropoxy)ethoxy)ethoxy)hexyloxy)phenyl)ethyl)-3-((4-methyl-5-(pyrimidin-4-yl)-4H-1,2,4-triazol-3-yl)methylamino)benzamide] | 17.9 nM | 24.7 µM | 78.7% | 84.7% | 90.7% | 880 nM | 0.29 µM | – |
| C[C@H](NC(=O)c1cccc(NCc2nnc(-c3ccncn3)n2C)c1)c1ccc(OCCCCN2CCN(c3ccc4c(c3)CN(C3CCC(=O)NC3=O)C4=O)CC2)cc1 (stereo partly drawn) [Compound D117, N-((1S)-1-(4-(4-(4-(2-(2,6-dioxopiperidin-3-yl)-1-oxoisoindolin-5-yl)piperazin-1-yl)butoxy)phenyl)ethyl)-3-((4-methyl-5-(pyrimidin-4-yl)-4H-1,2,4-triazol-3-yl)methylamino)benzamide hydrochloride] | > 1000 nM | – | 12.3% | -20.5% | -4.97% | – | – | – |
| C[C@@H](NC(=O)c1cccc(NCc2nnc(-c3ccncn3)n2C)c1)c1cccc(OCCCCCCOCCOCCN2CCN(c3ccc4c(c3)CN(C3CCC(=O)NC3=O)C4=O)CC2)c1 (stereo partly drawn) [Compound D135, N-((1R)-1-(3-(6-(2-(2-(4-(2-(2,6-dioxopiperidin-3-yl)-1-oxoisoindolin-5-yl)piperazin-1-yl)ethoxy)ethoxy)hexyloxy)phenyl)ethyl)-3-((4-methyl-5-(pyrimidin-4-yl)-4H-1,2,4-triazol-3-yl)methylamino)benzamide] | 23.7 nM | – | 82.2% | 84.2% | 84.3% | – | 0.06 µM | – |
| C[C@@H](NC(=O)c1cccc(NCc2nnc(-c3ccncn3)n2C)c1)c1cccc(OCCCCCCOCCN2CCN(c3cc4c(cc3F)C(=O)N(C3CCC(=O)NC3=O)C4=O)CC2)c1 (stereo partly drawn) [Compound D134, N-((1R)-1-(3-(6-(2-(4-(2-(2,6-dioxopiperidin-3-yl)-6-fluoro-1,3-dioxoisoindolin-5-yl)piperazin-1-yl)ethoxy)hexyloxy)phenyl)ethyl)-3-((4-methyl-5-(pyrimidin-4-yl)-4H-1,2,4-triazol-3-yl)methylamino)benzamide] | 29.9 nM | – | 64.1% | 82.6% | 86.7% | – | 0.29 µM | – |
| C[C@H](NC(=O)c1cccc(NCc2nnc(-c3ccncn3)n2C)c1)c1ccc(OCCCN2CCN(c3ccc4c(c3)CN(C3CCC(=O)NC3=O)C4=O)CC2)cc1 (stereo partly drawn) [Compound D118, N-((1S)-1-(4-(3-(4-(2-(2,6-dioxopiperidin-3-yl)-1-oxoisoindolin-5-yl)piperazin-1-yl)propoxy)phenyl)ethyl)-3-((4-methyl-5-(pyrimidin-4-yl)-4H-1,2,4-triazol-3-yl)methylamino)benzamide hydrochloride] | > 1000 nM | – | -13.1% | 3.23% | 5.18% | – | – | – |
| C[C@H](NC(=O)c1cccc(NCc2nnc(-c3ccncn3)n2C)c1)c1cccc(OCCCCCCOCCOCCOCCCCCC(=O)Nc2cccc3c2CN(C2CCC(=O)NC2=O)C3=O)c1 (stereo partly drawn) [Compound D55, N-((1S)-1-(3-((6-(2-(2-((6-((2-(2,6-dioxopiperidin-3-yl)-1-oxoisoindolin-4-yl)amino)-6-oxohexyl)oxy)ethoxy)ethoxy)hexyl)oxy)phenyl)ethyl)-3-(((4-methyl-5-(pyrimidin-4-yl)-4H-1,2,4-triazol-3-yl)methyl)amino)benzamide] | – | – | – | – | – | – | – | < 100 nM |
| Cc1ncsc1-c1ccc(CNC(=O)[C@@H]2C[C@@H](O)CN2C(=O)[C@@H](NC(=O)CCCCCOCCOCCOCCCCCCOc2ccc(F)c(CNC(=O)c3cccc(NCc4nnc(-c5ccncn5)n4C)c3)c2)C(C)(C)C)cc1 [Compound D88, (2S,4R)-1-((S)-2-(tert-butyl)-22-(4-fluoro-3-((3-(((4-methyl-5-(pyrimidin-4-yl)-4H-1,2,4-triazol-3-yl)methyl)amino)benzamido)methyl)phenoxy)-4-oxo-10,13,16-trioxa-3-azadocosan-1-oyl)-4-hydroxy-N-(4-(4-methylthiazol-5-yl)benzyl)pyrrolidine-2-carboxamide] | – | – | – | – | – | – | – | 100 to 1000 nM |
